These results are taken from patent publication US20050143453A1, “Selective preventing and therapeutic agents for progressive lesion after organic damage” (priority 2000, published 2005).

For series [1], the system named is kidney of chronic puromycin nephrosis rat. Description: Puromycin chronic nephrosis model in rat (CPN, Test Example 4). Type of series: in vivo. On the set-up: key to Suppressive Effect to Glomerular Lesion / Suppressive Effect to Lesion of Tubulointerstitial Tissue: ∘: available; Δ: somewhat available; x: not available. The procedure: Evaluation Using Puromycin Chronic Nephrosis Model in Rat
Male SD rat of 8 weeks age of about 250 g was used and […] of puromycin were intravenously administered once according to a method of Diamond, et al. (J. R. Diamond, I. Pesek, S. Ruggeri, M. J. Karnovsky: Essential fatty acid deficiency during acute puromycin nephrosis ameliorates late renal injury. Am. J. Physiol, 257: F798˜F807, 1989). There was induced a chronic puromycin nephrosis rat where albuminuria increased from about tenth to twelfth week. After eighth week from administration of puromycin, each of compound (9-1) and compound (6-1) was subcutaneously injected at the dose of 30 mg/kg/day everyday until the 22nd week.
As a functional evaluation of kidney, albumin in urine was measured every week using a kit for the measurement of albumin. On the 22nd week, the rat was killed and anatomized to observe functional and morphological changes of kidney.

For series [2], the system named is induction of effector macrophage by contact of human PBMC with lipopolysaccharide. Description: SPFC production by LPS stimulation (Test Example 1). Type of series: cell-based. The procedure: A suppressive effect of the test compound to effector macrophage induction was investigated in vitro by an induction and production system of spontaneous plaque-forming cell (SPEC) mentioned in M. Ishibashi, S. Jiang, Y. Kokado, S. Takahara, T. Sonoda: Immunopharmacologic effects of immunosuppressive agents explored by a new effector generation assay. Transplant Proc., 21: 1854-1858, 1989.
Heparin-added peripheral blood (40 ml) was collected from a healthy person and the same amount of EDTA-added physiological saline was added. PBMC were obtained by a specific gravity centrifugal method using Ficoll-Hypaque (manufactured by Pharmacia Fine Chemicals). Self-plasma was added thereto and allowed to stand at 37° C. for 10 minutes and platelets were removed by a low-speed centrifugal separation. RPMI 1640 liquid containing 15 μg/ml of gentamicin and 2 mM L-glutamine was used for washing the PBMC. Concentration of the PBMC was adjusted to 2×10^6 cells/ml using the same liquid.
Each 200 μl of a solution containing 2×10^6 PBMC/ml prepared in the step 1 were added to each well of a micro test plate, lipopolysaccharide (hereinafter, abbreviated as LPS) was diluted with the RPMI 1640 liquid to make the final concentration 80 μg/ml and the said LPS solution was added to each well of the 200 μl-micro test plate. Further, each 50 μl of human serum of type AB were added so as to make the concentration 10% by weight. Two such micro test plates were prepared.
After that, to the above two micro test plates was added a solution where the test compound was diluted with 1% by weight of DMSO so as to make the concentration of the test compound 1 μM. Similarly were prepared each two micro test plates where the final concentrations of the test compound were 0.1 μM, 0.01 μM and 0.001 μM.
The culture liquid prepared as such was incubated for 6 days at 37° C. in 5% CO2.
The effector macrophage induced after the incubation was all recovered using a rubber-policeman (spatula made of rubber). A Hanks solution containing 5 μg/ml of gentamicin was used for washing and, using the said solution, there was prepared a solution where the concentration of the induced effector macrophage was 2×10^6 per ml.
With regard to autologous erythrocytes, those which were preserved at 4° C. in a phosphate physiological saline (hereinafter, abbreviated as PBS) to which 0.1% by weight of AB serum and autologous erythrocytes obtained from PBMC separation were used were used. The preserved autologous erythrocytes were washed for three times with a Hanks solution to which no serum was added and made into a solution of 4% by weight concentration using the said Hanks solution. Poly-L-lysine was added to a Terasaki plate and washed with PBS every 20 minutes at 37° C., the above-mentioned autologous erythrocyte solution was added thereto immediately, the mixture was allowed to stand at 37° C. for 30 minutes and the erythrocytes which were not adhered to the plate were removed to prepare a Terasaki plate to which self-erythrocytes in a monolayer were adhered.
A Hanks solution (4 μl) was added to the said Terasaki plate, 4 μl of a solution containing the induced effector macrophage obtained in the step 3 were added thereto and the mixture was allowed to stand at 37° C. for 2 hours. After completion of the reaction, it was fixed by formalin. Numbers of the produced SPFC which were adhered or phagocytized were measured.
A mean SPFC production number was calculated from the measured values of SPFC production when the concentration of the test compound was the same. SPFC production number per 1×10^6 of the induced effector macrophage was calculated and, from the recovered induced effector macrophage numbers, total SPFC production amount (S2) was calculated.
As a control, no test compound was added and the same operation as above was carried out to calculate the total SPFC production amount (S1). […]

Series [3] concerns induction of effector macrophage by contact of human PBMC with mitomycin-treated human PBMC (allo-MLC). Description: SPFC production by allo-MLC stimulation (Test Example 2). Type of series: cell-based. The note with it: for functional group (selective suppression of SPFC production by allo-MLC or LPS stimulation): summary of Table 1.
The nature of series [4]: Acute and chronic toxicity tests (Test Example 5). Type of series: in vivo. As to conditions: subcutaneously 30 mg/kg/day for ten days. Here is the method: Acute and Chronic Toxicity Tests
Toxicity test of benzyl 2-chloro-5-oxotetrahydrofuran-2-carboxylate represented by the formula (6-1) manufactured in Example 8 and ethyl 2-ketoglutarate represented by the formula (9-1) was carried out.

Series [5] has as its system lesion of tubulointerstitial tissue / glomerulus. Description: Suppression of renal lesion in vivo by active metabolites (model not stated).
Series [6] concerns obstruction-released kidney of male SD rats. The series can be described thus: Obstruction release model after complete obstruction of unilateral ureter for 14 days (UUO/Release, Test Example 3). Type of series: in vivo, rat. On the set-up: key to Suppressive Effect to Glomerular Lesion / Suppressive Effect to Lesion of Tubulointerstitial Tissue: ∘: available; Δ: somewhat available; x: not available. As to conditions: for selectivity of the suppressive effect on renal lesions / Rate of Cases where Glomerular Lesion was Suppressed / Rate of Cases where tubulointerstitial Lesion was Suppressed / Serum Creatinine level (mg/dl) on the 7th Day from Release of Obstruction / Weight of Kidney (g) on the 7th Day from Release of Obstruction: 30 mg/kg subcutaneously every day; for Rate of Cases where Glomerular Lesion was Suppressed / Rate of Cases where tubulointerstitial Lesion was Suppressed / Serum Creatinine level (mg/dl) on the 7th Day from Release of Obstruction / Weight of Kidney (g) on the 7th Day from Release of Obstruction: Table 2. Here is the method:
Obstruction Release Model after Complete Obstruction of Unilateral Ureter for 14 Days
Experimental models were prepared by a method devised and established by Ishibashi (Michio Ishibashi, et al.: The Japanese Journal of Nephrology, 42: 248, 2000) using male SD rats of 8-9 weeks age and about 280 g. Thus, the rat was laparotomized under anesthetization with ether and ureter was ligated with 7-0 Nylon at the height of the margin of lower pole of left kidney to close the abdomen. On the 14th day after obstruction, the obstruction was released and urinary passage was reconstructed using a cuff. Thus, after 14 days, the part of ligated obstructed ureter was resected, a polyethylene tube of 25 gages (manufactured by Nippon Sherwood) was used as a cuff and inserted into and retained at the lumen from the cut end of the lower normal ureter, then the cuff was also retained in the expanded upper ureter and each of them was ligated and fixed by 7-0 Nylon to reconstruct the urinary passage. At the same time, the right kidney at the opposite side was excised. After the release of the obstruction, body weight was measured, blood was collected on the 2nd day, 5th day and 7th day from the release to measure serum creatinine, then the rat was sacrificed under anesthetization and the left obstruction-released kidney was excised. With regard to the excised kidney, there were carried out measurement of weight of the kidney and pathological test for the kidney.
An in vivo biological test was carried out for the γ-lactone derivatives according to the present invention using the above models. With regard to the test compound, bulk powder of the test compound was dissolved in an aseptic physiological saline together with gum arabic and the final concentration of gum arabic was 5%(vol/vol). The concentration of the test compound 30 mg/ml was suspended in 5% gum arabic-saline solution. The preparation was subcutaneously injected at the dose of 30 mg/kg every day throughout the experiment. With regard to the test compound, there were used (9-1), (4-2) and (7-3) as the compounds of group I suppressing the SPFC production by allo-MLC stimulation, i.e., the compounds which selectively suppress the induction of effector macrophage in the presence of allo-MLC while there was used (3-2) as the compound of group II suppressing the SPFC production by LPS stimulation, i.e., the compounds which selectively suppress the induction of effector macrophage in the presence of LPS.
In the Table, “functional classification” of the compound means the above group I, group II and group III. “Compound” means the compound bearing each of the above-mentioned compound numbers. The fact whether glomerular lesion was suppressed was judged by the ameriolation of the lesions such as thickness of wall of Bowman's capsule, hyperplasia of mesangial cells and glomerular sclerosis. The fact whether lesion of tubulointerstitial tissue was suppressed was judged by the ameriolation of the lesions such as thickness of basement membrane of tubules, cellular infiltration and fibrosis of interstitial tissue. In the table, “control” is the result when the same test as above was carried out using 5% gum arabic only which is a solvent.
In order to further confirm whether the preventive and therapeutic effect of the γ-lactone derivatives of the present invention to the target cell damage is selective, (7-3) of the group I and (6-1) of the group II were used as test compounds and they were subcutaneously injected at the dose of 30 mg/kg every day and compared with the control group. With regard to the control group, only 5% gum arabic which is a solvent was used and the same test as above was carried out.

The mark [7] stands for this setting: 30 mg/kg/day subcutaneously from 8th to 22nd week after puromycin.
Setting [8] is: 144 h, human PBMC with LPS 80 μg/ml, incubated 6 days, Table 1, read-out: SPFC Production Inhibiting Concentration by LPS Stimulation (μM: IC50).
Where [9] appears, read: Homo sapiens, Table 5, read-out: Inhibiting Concentration for SPEC Production by LPS Stimulation (μM: IC50).
[10] abbreviates: 144 h, human PBMC with mitomycin-treated human PBMC, incubated 6 days, Table 1, read-out: SPFC Production Inhibiting Concentration by all-MLC Stimulation (μM: IC50).
[11] abbreviates: Homo sapiens, Table 5, read-out: Inhibiting Concentration for SPEC Production by allo-MLC Stimulation (μM: IC50).
Where [12] appears, read: Experimental Model of Rat: UUO/Release and CPN.
[13] abbreviates: Experimental Model of Rat: UUO/Release.

Where two headings read alike, the source gives them in different places. Some results are limits rather than exact numbers.

Regarding `O=C1CCC(Cl)(C(=O)OCc2ccccc2)O1` (stereo not drawn) [(6-1), Benzyl 2-chloro-5-oxotetrahydrofuran-2-carboxylate], in series [1] (30 mg/kg/day subcutaneously), the “suppression of glomerular lesion” value was “well suppressed”. The “Rate of Cases where Glomerular Lesion was Suppressed” value in series [1] (setting [7]) was 67% (4/6). In addition, in series [1] (setting [7]), the “Rate of Cases where Lesion of Tubulointerstitial Tissue was Suppressed” value is 17% (1/6). The “Suppressive Effect to Glomerular Lesion” value in series [1] (Experimental Model of Rat: CPN) is recorded as “∘”. For the same molecule, in series [1] (Experimental Model of Rat: CPN), the “Suppressive Effect to Lesion of Tubulointerstitial Tissue” value (from here on “Suppressive Effect to Lesion”) is “x”. For the same molecule, the IC50 in series [2] (setting [8]) is 0.001 µM; in series [2] (setting [9]) it was 0.001 µM; in series [3] (setting [10]), more than 1 µM; in series [3] (setting [11]) it was more than 1 µM. Further, in series [3], the “functional group (selective suppression of SPFC production by allo-MLC or LPS stimulation)” value is “group II”. The toxicity finding result in series [4] is “an increase in weights of the liver and the spleen in a light degree”.

For benzyl 2-ketoglutarate [(9-2)], in series [2], the “suppression of SPFC production by LPS stimulation” value is reported as “selectively suppresses”. In addition, the “suppression of lesion of glomerulus in vivo” value in series [5] is listed as “able to suppress”.

On to `CCOC(=O)C1(Oc2ccc(F)cc2)CCC(=O)O1` (racemic) [Conventional Compound, ethyl 2-(4-fluorophenoxy)-5-oxo-2-tetrahydrofurancarboxylate, reference compound], for which the IC50 in series [2] (setting [8]) was found to be 0.1 µM. Moreover, in series [2] (setting [9]), the IC50 came to 0.1 µM. For the same molecule, in series [6], the “selectivity of the suppressive effect on renal lesions” value was “no selective suppression was observed”, the “Rate of Cases where Glomerular Lesion was Suppressed” value is 75% (3/4), the “Rate of Cases where tubulointerstitial Lesion was Suppressed” value is reported as 75% (3/4) and the “Serum Creatinine level (mg/dl) on the 7th Day from Release of Obstruction” value stood at 2.2 ± 0.2 mg/dL. In addition, the “Weight of Kidney (g) on the 7th Day from Release of Obstruction” value in series [6] is given as 2.73 ± 0.41 g. In series [6] (setting [12]), the “Suppressive Effect to Glomerular Lesion” value was “∘” and the “Suppressive Effect to Lesion” value is “∘”. The IC50 in series [3] (setting [10]) is 0.1 µM. Besides, the IC50 in series [3] (setting [11]) was 0.1 µM.

With `CC(OC(=O)[C@]1(Oc2ccc(F)cc2)CCC(=O)O1)c1ccc2ccccc2c1` (mixture of isomers) [(4-2), (RS)-(+)-α-methyl-2-naphthalene-methyl 2-(4-fluorophenoxy)-5-oxotetrahydrofuran-2-carboxylate], the IC50 in series [2] (setting [8]) was more than 1 µM. Also, in series [2] (setting [9]), the IC50 is more than 1 µM. In addition, in series [6], the “selectivity of the suppressive effect on renal lesions” value was “selective suppressive effect”, the “Rate of Cases where Glomerular Lesion was Suppressed” value is on record as 50% (2/4), the “Rate of Cases where tubulointerstitial Lesion was Suppressed” value is listed as 100% (4/4) and the “Serum Creatinine level (mg/dl) on the 7th Day from Release of Obstruction” value was 2.7 ± 0.3 mg/dL. The “Weight of Kidney (g) on the 7th Day from Release of Obstruction” value in series [6] is given as 3.94 ± 0.32 g. Also, in series [6] (setting [13]), the “Suppressive Effect to Glomerular Lesion” value was “Δ” and the “Suppressive Effect to Lesion” value is given as “∘”. Further, in series [3] (setting [10]), the IC50 was determined as 0.01 µM. Moreover, the IC50 in series [3] (setting [11]) is 0.01 µM. Also, the “functional group (selective suppression of SPFC production by allo-MLC or LPS stimulation)” value in series [3] was “group I”.
